Test results reported in patent US20070031902A1, “Predictive Methods For Cancer Chemotherapy” (priority 2005, published 2007).
Entries after “also recorded” stand apart in the source; their conditions may differ.

Experiments:
Assay type in all cases: cell-based, human
p4EBP1 = test: IHC and image analysis of p4EBP1 under DFO-induced hypoxia; details: Jurkat cells, 50 μM DFO overnight vs vehicle
Protocol: (§1) These markers were evaluated by immunohistochemistry (“IHC”) and image analysis in the presence of Desferrioxarnine (“DFO”)-induced hypoxia, as well as in its absence, or normoxia. DFO is an iron-chelating agent known to induce hypoxia, and was used in these experiments as a model for hypoxia. All IHC analyses were carried out on either the BenchMark XT® or Discovery XT® (Ventana Medical Systems, Inc., Tucson Ariz. (“VMSI”)) staining platforms. Primary antibodies were obtained from commercial sources (See Table 1). Controls were vehicle treated. […] Primary antibodies were detected using the DABMapTM, OmniMapTM (Discovery XT®), or iViewTM DAB (BenchMark XT®) detection kit according to the manufacturer's instructions. […] Detection Kit detected specific mouse IgG, IgM and rabbit IgG antibodies bound to an antigen in paraffin-embedded or frozen tissue section. […] Staining intensities, percentage of reactive cells, and cellular localization were recorded. […] Slides were reviewed and scored by the pathologist prior to quantitation by optical imaging. For optical imaging, a digital application (VMSI) with image quantification based on the intensity (expressed as average optical density, or avg. OD) of the stain converted to a numerical score was utilized. […]

pMEK = test: IHC and image analysis of pMEK under DFO-induced hypoxia; details: Jurkat cells, 50 μM DFO overnight vs vehicle
Protocol: as §1

pS6 = test: IHC and image analysis of pS6 under DFO-induced hypoxia; details: Jurkat cells, 50 μM DFO overnight vs vehicle
Protocol: These markers were evaluated by immunohistochemistry (“IHC”) and image analysis in the presence of Desferrioxarnine (“DFO”)-induced hypoxia, as well as in its absence, or normoxia. DFO is an iron-chelating agent known to induce hypoxia, and was used in these experiments as a model for hypoxia. All IHC analyses were carried out on either the BenchMark XT® or Discovery XT® (Ventana Medical Systems, Inc., Tucson Ariz. (“VMSI”)) staining platforms. Primary antibodies were obtained from commercial sources (See Table 1). Controls were vehicle treated. […] Primary antibodies were detected using the DABMapTM, OmniMapTM (Discovery XT®), or iViewTM DAB (BenchMark XT®) detection kit according to the manufacturer's instructions. […] Detection Kit detected specific mouse IgG, IgM and rabbit IgG antibodies bound to an antigen in paraffin-embedded or frozen tissue section. […]

HIF-1α [1] = test: IHC and image analysis of HIF-1α in Jurkat cells under DFO-induced hypoxia; details: 50 μM DFO overnight vs vehicle
Protocol: as §1

pmTOR = test: IHC and image analysis of pmTOR under DFO-induced hypoxia; details: Jurkat cells, 50 μM DFO overnight vs vehicle
Protocol: as §1

pAKT = test: IHC and image analysis of pAKT under DFO-induced hypoxia; details: Jurkat cells, 50 μM DFO overnight vs vehicle
Protocol: as §1

pTSC2 = test: IHC and image analysis of pTSC2 under DFO-induced hypoxia; details: Jurkat cells, 50 μM DFO overnight vs vehicle
Protocol: as §1

mTOR = test: IHC and image analysis of mTOR under DFO-induced hypoxia; details: 50 μM DFO overnight vs vehicle; consistently high
Protocol: as §1

pERK (p44/p42) = test: IHC and image analysis of pERK (p44/p42) under DFO-induced hypoxia; details: 50 μM DFO overnight vs vehicle; negative in Jurkat cells, positive in HT1080 cells
Protocol: as §1

HIF-1α [2] = test: IHC and image analysis of HIF-1α in HT1080 cells (DFO, PX-478 dose escalation); details: DFO vs vehicle
HIF-1α [3] = test: FACS of hypoxia-induced HIF-1α expression in Jurkat tumor cell line; details: after treatment with DFO
Protocol: FIG. 6 illustrates the fluorescence-activated cell sorting (FACS) results of hypoxia-induced HIF-1α expression in a Jurkat tumor cell line. IHC was conducted and assessed according to the procedures detailed in Example 1. Western Blotting and FACS analysis were conducted using standard conditions.

CC(=O)N(O)CCCCCNC(=O)CCC(=O)N(O)CCCCCNC(=O)CCC(=O)N(O)CCCCCN [DFO, desferrioxamine]
p4EBP1 expression (IHC) (p4EBP1): decrease in expression
pMEK expression (IHC) (pMEK): decrease in expression
pS6 expression (IHC) (pS6): decrease in expression
HIF-1α expression (IHC) (HIF-1α [1]): increase in expression; also recorded: increased expression
pmTOR expression (IHC) (pmTOR): increase in expression
pAKT level of expression or activation (IHC) (pAKT): no change
pTSC2 level of expression or activation (IHC) (pTSC2): no change
level of mTOR (IHC) (mTOR): No change
level of pERK (IHC) (pERK (p44/p42)): No change
HIF-1α expression (IHC) (HIF-1α [2]): increased expression
HIF-1α (FACS) (HIF-1α [3]): increase in HIF-1α
